Measured values reported in PubChem BioAssay (NCI).
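GI50 = concentration required for 50% inhibition of growth. The concentration for full growth arrest is given as TGI.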

Tests used:
Assay in all cases: inhibition of tumour cell growth, NCI panel, 384-well format
[1] = system: MALME-3M melanoma
[2] = system: A549 NSCLC
[3] = system: COLO 205 colon
[4] = system: HCT-15 colon
[5] = system: SK-MEL-28 melanoma
[6] = system: CAKI-1 renal
[7] = system: EKVX NSCLC
[8] = system: NCI-H23 lung
[9] = system: MOLT-4 leukemia
[10] = system: OVCAR-5 ovarian
[11] = system: SR leukemia
[12] = system: SF-539 CNS
[13] = system: KM12 colon
[14] = system: RXF 393 renal
[15] = system: SF-268 CNS
[16] = system: HS 578T breast
[17] = system: T-47D breast
[18] = system: A498 renal
[19] = system: ACHN renal
[20] = system: U251 glioblastoma
[21] = system: SN12C renal
[22] = system: DU-145 prostate
[23] = system: SW-620 colon
[24] = system: OVCAR-8 ovarian
[25] = system: SNB-75 CNS
[26] = system: SNB-19 CNS
[27] = system: SF-295 CNS
[28] = system: M14 melanoma
[29] = system: UACC-62 melanoma
[30] = system: HT29 colon
[31] = system: NCI-H226 lung
[32] = system: 786-0 renal
[33] = system: MCF7 breast
[34] = system: NCI-H522 lung
[35] = system: MDA-MB-231 breast
[36] = system: NCI-H460 NSCLC
[37] = system: OVCAR-3 ovarian
[38] = system: UACC-257 melanoma
[39] = system: HOP-62 NSCLC
[40] = system: OVCAR-4 ovarian
[41] = system: SK-OV-3 ovarian
[42] = system: SK-MEL-5 melanoma
[43] = system: IGROV1 ovarian
[44] = system: NCI/ADR-RES ovarian
[45] = system: RPMI-8226 leukemia
[46] = system: BT-549 breast
[47] = system: HOP-92 NSCLC
[48] = system: MDA-MB-468 breast
[49] = system: MDA-MB-435 melanoma
[50] = system: PC-3 prostate
[51] = system: NCI-H322M lung
[52] = system: LOX IMVI melanoma
[53] = system: HCC-2998 colon
[54] = system: HCT-116 colon
[55] = system: HL-60(TB) leukemia
[56] = system: UO-31 renal
[57] = system: TK-10 renal

COc1cc2nccc(Oc3ccc(NC(=O)Nc4cc(C)on4)c(Cl)c3)c2cc1OC
GI50 [1]: 1.81 µM | TGI [1]: 4.39 µM | GI50 [2]: 3.25 µM | TGI [2]: 11 µM | GI50 [3]: 2.59 µM | TGI [3]: 8.26 µM | GI50 [4]: 4.16 µM | TGI [4]: > 100 µM | GI50 [5]: 4.26 µM | TGI [5]: 21 µM | GI50 [6]: 2.67 µM | TGI [6]: 6.87 µM | GI50 [7]: 4.4 µM | TGI [7]: 20.9 µM | GI50 [8]: 2.65 µM | TGI [8]: 7.77 µM | GI50 [9]: 1.45 µM | TGI [9]: 2.99 µM | GI50 [10]: 4.4 µM | TGI [10]: 21.2 µM | GI50 [11]: 3.73 µM | TGI [11]: 5.34 µM | GI50 [12]: 1.24 µM | TGI [12]: 2.95 µM | GI50 [13]: 0.346 µM | TGI [13]: > 100 µM | GI50 [14]: 1.65 µM | TGI [14]: 4.28 µM | GI50 [15]: 3.06 µM | TGI [15]: 8.86 µM | GI50 [16]: 2.08 µM | TGI [16]: 7.41 µM | GI50 [17]: 4.17 µM | TGI [17]: 23.1 µM | GI50 [18]: 5.6 µM | TGI [18]: 21 µM | GI50 [19]: 3.53 µM | TGI [19]: 11.6 µM | GI50 [20]: 9.48 µM | TGI [20]: > 100 µM | GI50 [21]: 2.95 µM | TGI [21]: 9.88 µM | GI50 [22]: 5.63 µM | TGI [22]: 81.3 µM | GI50 [23]: 2.82 µM | TGI [23]: 7.18 µM | GI50 [24]: 4.45 µM | TGI [24]: 41 µM | GI50 [25]: 2.53 µM | TGI [25]: 6.7 µM | GI50 [26]: 16.6 µM | TGI [26]: > 100 µM | GI50 [27]: 3.18 µM | TGI [27]: 11.5 µM | GI50 [28]: 3.72 µM | TGI [28]: 15.3 µM | GI50 [29]: 2.9 µM | TGI [29]: 13.5 µM | GI50 [30]: 3.17 µM | TGI [30]: 12.1 µM | GI50 [31]: 0.906 µM | TGI [31]: 3.39 µM | GI50 [32]: 3.79 µM | TGI [32]: 12 µM | GI50 [33]: 4.99 µM | TGI [33]: 31.6 µM | GI50 [34]: 2.51 µM | TGI [34]: 6.54 µM | GI50 [35]: 2.38 µM | TGI [35]: 6.83 µM | GI50 [36]: 4.58 µM | TGI [36]: 19 µM | GI50 [37]: 5.25 µM | TGI [37]: 20.1 µM | GI50 [38]: 11.9 µM | TGI [38]: 30.3 µM | GI50 [39]: 9.77 µM | TGI [39]: > 100 µM | GI50 [40]: 5.71 µM | TGI [40]: 25 µM | GI50 [41]: 6.78 µM | TGI [41]: 67.1 µM | GI50 [42]: 3.35 µM | TGI [42]: 11.8 µM | GI50 [43]: 2.22 µM | TGI [43]: 5.21 µM | GI50 [44]: 2.9 µM | TGI [44]: 8.81 µM | GI50 [45]: 3.79 µM | TGI [45]: 15.1 µM | GI50 [46]: 3.2 µM | TGI [46]: 7.18 µM | GI50 [47]: 1.7 µM | TGI [47]: 3.33 µM | GI50 [48]: 3.51 µM | TGI [48]: 8.5 µM | GI50 [49]: 7.46 µM | TGI [49]: 73.4 µM | GI50 [50]: 6.29 µM | TGI [50]: > 100 µM | GI50 [51]: 3.91 µM | TGI [51]: 13.9 µM | GI50 [52]: 4.08 µM | TGI [52]: 11 µM | GI50 [53]: 23.9 µM | TGI [53]: 91.9 µM | GI50 [54]: 3.51 µM | TGI [54]: 11.5 µM | GI50 [55]: 2.87 µM | TGI [55]: 5.3 µM | GI50 [56]: 2.75 µM | TGI [56]: 5.98 µM | GI50 [57]: 19.9 µM | TGI [57]: > 100 µM
